Data set [1] concerns the target T1, Coagulation factor XI (Homo sapiens, UniProt P03951). As to the kind of experiment: Inhibition of human factor 11a assessed as reduction in para-nitroanilide releasee using pyroGlu-Pro-Arg-pNA.HCl substrate by chromogenic assay.
Data set [2] is described as follows: Terminal half life in healthy human following administration of 2 hrs and 5 day continuous iv infusion. Format: ADME, organism-based. As to conditions: in vivo, read-out: beta t1/2.
For another data set, the target named is Tryptase (Homo sapiens, UniProt Q9BZJ3+Q15661+Q9NRR2). The data set can be described thus: Inhibition of human lung tryptase using Z-glypro-arg-AMC incubated for 3 mins by spectrophotometry. The format is protein assay.
In another data set the target is Trypsin (Homo sapiens, UniProt P07477+P07478+P35030). As to the kind of experiment: Inhibition of trypsin (unknown origin) using Chromozyme-TRY substrate incubated for 3 mins by spectrophotometry. The format is protein assay.
For data set [3], the species on record is Oryctolagus cuniculus. The data set can be described thus: Antithrombotic activity in rabbit model of arteriovenous-shunt thrombosis. The format is functional.
Data set [4] is filed under the species Oryctolagus cuniculus. As to the kind of experiment: Antithrombotic activity in rabbit model of venous thrombosis. The format is functional.
The species named for data set [5] is Oryctolagus cuniculus. The data set can be described thus: Antithrombotic activity in rabbit model of electrolytic-mediated carotid arterial thrombosis. The format is functional.
The target of data set [6] is T1, Coagulation factor XI. As to the kind of experiment: Inhibition of human factor 11a incubated for 60 mins by Cheng-Prusoff equation analysis.

Results on 4 compounds are retold here after ChEMBL document CHEMBL4196099, “Factor XIa Inhibitors as New Anticoagulants” (J Med Chem, 2018).

Usually Kd stands for the equilibrium constant for the complex coming apart. As a reminder, the IC50 is the midpoint of a concentration-inhibition curve. A high value points to weaker potency. Usually ED50 stands for the dose that gives a 50% effect, or the effect in half of the subjects. One may read the Ki as the equilibrium dissociation constant of an inhibitor or competing ligand from its target. A higher Ki goes with weaker binding.

T1 sequence (P03951 19-387 limits assumed): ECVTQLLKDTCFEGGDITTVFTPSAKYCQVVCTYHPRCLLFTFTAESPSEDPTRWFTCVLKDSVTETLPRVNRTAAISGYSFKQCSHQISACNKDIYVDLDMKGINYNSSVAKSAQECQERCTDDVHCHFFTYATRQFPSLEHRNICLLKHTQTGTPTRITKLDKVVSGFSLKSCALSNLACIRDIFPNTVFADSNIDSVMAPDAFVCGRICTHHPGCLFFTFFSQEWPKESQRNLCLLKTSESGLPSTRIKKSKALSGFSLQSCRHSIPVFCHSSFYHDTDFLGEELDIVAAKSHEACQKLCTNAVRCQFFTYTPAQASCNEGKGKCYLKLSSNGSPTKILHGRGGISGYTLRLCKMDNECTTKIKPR
T1 sequence (P03951 388-625 limits assumed): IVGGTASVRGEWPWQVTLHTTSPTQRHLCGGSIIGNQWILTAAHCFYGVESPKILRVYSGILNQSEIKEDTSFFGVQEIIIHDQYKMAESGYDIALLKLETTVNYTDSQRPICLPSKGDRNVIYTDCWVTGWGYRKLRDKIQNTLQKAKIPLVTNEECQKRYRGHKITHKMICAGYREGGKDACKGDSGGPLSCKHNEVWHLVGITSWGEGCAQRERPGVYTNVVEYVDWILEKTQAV

Regarding `CNC(=O)[C@H](Cc1ccccc1)NC(=O)c1ccc2[nH]c(=O)cc(O)c2c1`, the Kd on Coagulation factor XI [1] amounted to 1400 µM.

As to `CN1CCN(c2cccc3c2CCN(C(=O)/C=C/c2c(-n4cnnn4)ccc(Cl)c2F)[C@@H]3C(=O)Nc2ccc(C(=O)O)cc2)C(=O)C1` [BMS-962212], in data set [2], the half-life was 6 to 9 h.

On to `CC(C)(C)NC(=O)N1CCN(C(=O)N2C(=O)[C@H](CCCN=C(N)N)[C@H]2C(=O)O)CC1`, for which the figures for the IC50 on Tryptase and on Trypsin were 0.005 µM and 0.05 µM, respectively. The ED50 in the data set listed under Oryctolagus cuniculus [3] came to 0.4 mg/kg/h; in the data set filed under Oryctolagus cuniculus [4], 0.7 mg/kg/h; in the data set listed under Oryctolagus cuniculus [5], 1.5 mg/kg/h.

For `COC(=O)Nc1ccc2c(c1)NC(=O)CCCC[C@H](NC(=O)[C@H]1CC[C@H](CN)CC1)c1nc-2c[nH]1`, the affinity on Coagulation factor XI [6], expressed as Ki, was 0.0003 µM.
